Test results as given in patent US20170088851A1, “METHODS FOR IMPROVING ABIOTIC STRESS RESPONSE” (The Regents of the University of California, priority 2011, published 2017).
Peptide text beside a SMILES is read from it. * marks the point of attachment. Cbz = O=C(OCc1ccccc1)*

How the values were obtained:
[1] = test system: N-end rule pathway of targeted proteolysis (NERP); assay: In vitro protein stability, heterologous rabbit reticulocyte lysate assay (TNT T7 Coupled Reticulocyte Lysate system, anti-HA immunoblot); assay type: biochemical; conditions: for effect on in vitro stability of Arabidopsis Group VII ERFs: HA-tagged ERFs in reticulocyte lysate, 100 μM MG132 or 1 mM dipeptides; for MC-GUS degradation in the presence of the inhibitor: MC-GUS produced in rabbit reticulocyte lysate
Description: Protein stability analyses. Full length cDNAs were PCR amplified from either Arabidopsis thaliana or Oryza sativa L. (cv. M202 (Sub1)). N-terminal mutations were introduced using a specific forward primer. For in vitro assays, cDNAs were cloned into a modified version of the pTNT vector (Promega) to produce C-terminal HA fusions. Stability assays were performed using the TNT T7 Coupled Reticulocyte Lysate system (Promega), essentially as described previously^23. For in vivo analysis of EIRE-HA proteins, cDNAs were cloned into pE2c, mobilized into pB2GW7 and transformed into Arabidopsis using the floral dip method. To Assess relative protein stability, equal amounts of total protein extracted from 7-day old T3 homozygous seedlings were analyzed by Western blot, and cDNA synthesized from total RNA was used as a template for semi-quantitative PCR.
In vitro analysis of protein stability: To generate Arabidopsis and rice protein-HA fusions driven by the T7 promoter, cDNAs were PCR amplified from Arabidopsis total cDNA or submerged rice cDNA (M202 (Sub1); as described^3 and ligated into a modified version of the pTNT […] expression vector (pTNT3xHA). N-terminal mutations were incorporated by changing the forward primer sequences accordingly (Table 1). Proteins were expressed in vitro using the TNT T7 Coupled Reticulocyte Lysate system (Promega) according to manufacturer's guidelines, using 500 ng plasmid template. Where appropriate, 100 μM MG132 or 1 mM dipeptides (arg-β-ala or ala-ala; Sigma-Aldrich) and […] Bestatin (Sigma-Aldrich) were added. Reactions were incubated at 30° C., and samples were taken at appropriate time points before mixing with protein loading dye to terminate protein synthesis. Equal amounts of each reaction were subjected to anti-HA immunoblot analysis.
Immunoblotting: Proteins resolved by SDS-PAGE were transferred to PVDF using a MiniTrans-Blot electrophoretic transfer cell (Bio-Rad). Membranes were probed with primary antibodies at the following titres: anti-HA (Sigma-Aldrich), 1:1000; anti-α-tubulin (Sigma-Aldrich), 1:5,000, or anti-ribosomal protein 5636, (1:5,000). HRP conjugated anti-mouse secondary antibody (Santa Cruz) was used at a titre of 1:10,000. Immunoblots were developed to film using ECL Western blotting substrate (Pierce). Alignment of MC-ERF proteins from Arabidopsis and Rice: Rice and Arabidopsis ERF proteins starting with the sequence MC- were aligned and phylogenetic relationships observed using CLUSTALW37.
We investigated the possibility that all Arabidopsis Group VII ERFs as well as rice SUB1A-1 were NERP substrates.

HRE2 = assay: Western blot of HRE2 protein levels in vivo after cPTIO treatment; parameters: species or system Arabidopsis; conditions: 35S CaMV promoter
From the text: FIG. 14D Stability of the physiological substrate HRE2 is controlled by NO. Western blot showing levels of HRE2 protein in-vivo (constitutive gene transcription produced from the 35S CaMV promoter).

MC-GUS = assay: Western analysis of MC-GUS protein levels in seedlings treated with cPTIO; assay type: in vivo, Arabidopsis; conditions: WT Col-0 seedlings treated with cPTIO
From the text: FIG. 14C Stability of MC-GUS in Col-0 is related to NO.

maplA mutant seeds = assay: Seed sensitivity to ABA on germination in the presence of fumagillin; assay type: in vivo, Arabidopsis
From the text: FIG. 13B Proteins initiating MC control seed sensitivity to ABA.

Compound: CC(C)C[C@@H](C=O)NC(=O)[C@H](CC(C)C)NC(=O)[C@H](CC(C)C)NC(=O)OCc1ccccc1 [MG132] (Cbz-Leu-Leu-Leu-aldehyde)
- effect on in vitro stability of Arabidopsis Group VII ERFs [1]: stability was enhanced
- MC-GUS degradation in the presence of the inhibitor [1]: not degraded

Compound: CC1(C)N([O])C(c2ccc(C(=O)O)cc2)=[N+]([O-])C1(C)C [cPTIO]
- effect on HRE2 protein level (HRE2): stabilises the protein
- effect on MC-GUS protein level (MC-GUS): MC-GUS protein accumulates

Compound: CO[C@@H]1[C@H](OC(=O)/C=C/C=C/C=C/C=C/C(=O)O)CC[C@]2(CO2)[C@H]1[C@@]1(C)O[C@@H]1CC=C(C)C [fumagillin]
- seed sensitivity to ABA when germinated in the presence of fumagillin (maplA mutant seeds): hypersensitive to ABA

Compound: Arg-Ala
- effect on in vitro stability of Arabidopsis Group VII ERFs [1]: stability was enhanced
- MC-GUS degradation in the presence of the inhibitor [1]: not degraded
